According to PubChem BioAssay AID2060328 (Molecular Pharmacology Branch, DTP, NCI, 2025):
“And” between values parts separate entries of the source, which are not always exact repeats. Equal values may be shown once.

Tested on: MDA-MB-231 multicell spheroids, viability (%T/C)
Assay: Anticancer human tumor MDA-MB-231 cell line growth inhibition [IpAb];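 further: viability read after seven days of drug exposure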;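 on viability, T/C: 100% = DMSO vehicle control viability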
Settings: for viability, T/C: stronger effect = lower value; active means viability on the fitted dose curve at most 10% of control; inactive means the rest
Procedure, shortened: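 Combinations with ipatasertib or abemaciclib were tested on tumour spheroids holding HUVEC (25%) and MSC (15%) alongside 60% malignant cells. Top concentration was at or near clinical Cmax (10 microM if undefined), descending in half-log steps.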

CC(C)NCC(C(=O)N1CCN(c2ncnc3c2C(C)CC3O)CC1)c1ccc(Cl)cc1 (configuration not stated)
4.43 µM [middle of 13 runs]: IC50 (compound alone, run of 06/01/2021)
inactive: viability, T/C (compound 0.1 µM) 95.4% [middle of 13 runs] | viability, T/C (compound 0.316 µM) 84.7% [middle of 13 runs] | viability, T/C (compound 1 µM) 70.5% [middle of 13 runs] | viability, T/C (compound 3.16 µM) 54.9% [middle of 13 runs] | viability, T/C (compound 10 µM) 39.5% [middle of 13 runs]

Cn1nccc1Nc1nccc(-c2ccn(C(CO)c3ccc(Cl)c(F)c3)c(=O)c2)n1 (configuration not stated) + CCN1CCN(Cc2ccc(Nc3ncc(F)c(-c4cc(F)c5nc(C)n(C(C)C)c5c4)n3)nc2)CC1
106 nM: IC50 (curve of first compound, second compound 0.01 µM)
< 31.6 nM: IC50 (curve of first compound, second compound 0.0316 µM) | IC50 (curve of first compound, second compound 0.1 µM) | IC50 (curve of first compound, second compound 0.316 µM) | IC50 (curve of first compound, second compound 1 µM)
inactive: viability, T/C (second compound 0.01 µM, first compound 0.0316 µM) 58% | viability, T/C (second compound 0.01 µM, first compound 0.1 µM) 50.2% | viability, T/C (second compound 0.01 µM, first compound 0.316 µM) 41.8% | viability, T/C (second compound 0.01 µM, first compound 1 µM) 37% | viability, T/C (second compound 0.01 µM, first compound 3.16 µM) 29.8% | viability, T/C (second compound 0.01 µM, first compound 10 µM) 21.9% | viability, T/C (second compound 0.0316 µM, first compound 0.0316 µM) 45.3% | viability, T/C (second compound 0.0316 µM, first compound 0.1 µM) 42.2% | viability, T/C (second compound 0.0316 µM, first compound 0.316 µM) 35.6% | viability, T/C (second compound 0.0316 µM, first compound 1 µM) 28.4% | viability, T/C (second compound 0.0316 µM, first compound 3.16 µM) 24.1% | viability, T/C (second compound 0.0316 µM, first compound 10 µM) 23.9% | viability, T/C (second compound 0.1 µM, first compound 0.0316 µM) 34.8% | viability, T/C (second compound 0.1 µM, first compound 0.1 µM) 34.1% | viability, T/C (second compound 0.1 µM, first compound 0.316 µM) 27.6% | viability, T/C (second compound 0.1 µM, first compound 1 µM) 24% | viability, T/C (second compound 0.1 µM, first compound 3.16 µM) 19.9% | viability, T/C (second compound 0.1 µM, first compound 10 µM) 19.2% | viability, T/C (second compound 0.316 µM, first compound 0.0316 µM) 29.6% | viability, T/C (second compound 0.316 µM, first compound 0.1 µM) 27.2% | viability, T/C (second compound 0.316 µM, first compound 0.316 µM) 20.7% | viability, T/C (second compound 0.316 µM, first compound 1 µM) 20.6% | viability, T/C (second compound 0.316 µM, first compound 3.16 µM) 20.2% | viability, T/C (second compound 0.316 µM, first compound 10 µM) 18.8% | viability, T/C (second compound 1 µM, first compound 0.0316 µM) 30.5% | viability, T/C (second compound 1 µM, first compound 0.1 µM) 25.7% | viability, T/C (second compound 1 µM, first compound 0.316 µM) 19.3% | viability, T/C (second compound 1 µM, first compound 1 µM) 20.7% | viability, T/C (second compound 1 µM, first compound 3.16 µM) 18.6% | viability, T/C (second compound 1 µM, first compound 10 µM) 18.7%

C=CC(=O)N1CCN(c2nc(=O)n(-c3c(C)ccnc3C(C)C)c3nc(-c4c(O)cccc4F)c(F)cc23)C(C)C1 (configuration not stated)
> 10000 nM: IC50 (curve of compound)
inactive: viability, T/C (compound 0.0316 µM) 106% and 110% | viability, T/C (compound 0.1 µM) 111% and 109% | viability, T/C (compound 0.316 µM) 109% and 117% | viability, T/C (compound 1 µM) 124% and 140% | viability, T/C (compound 3.16 µM) 122% and 126% | viability, T/C (compound 10 µM) 82% and 84.4%

CC(C)n1nc(-c2ccc3oc(N)nc3c2)c2c(N)ncnc21
inactive: viability, T/C (compound 0.000316 µM) 97.7% and 101% | viability, T/C (compound 0.001 µM) 86.1% and 104% | viability, T/C (compound 0.00316 µM) 72.2% and 72.1% | viability, T/C (compound 0.01 µM) 57.6% and 49.4% | viability, T/C (compound 0.0316 µM) 46.5% and 41.5% | viability, T/C (compound 0.1 µM) 43.5% and 37.4%
23.8 nM and 8.68 nM: IC50 (curve of compound)

COc1c(OCCCN2CCOCC2)ccc2c3n(c(=NC(=O)c4cnc(N)nc4)nc12)CCN3
50.1 nM and 39.5 nM: IC50 (curve of compound)
inactive: viability, T/C (compound 0.00316 µM) 84% and 88.5% | viability, T/C (compound 0.01 µM) 70.3% and 69.2% | viability, T/C (compound 0.0316 µM) 55.8% and 53.5% | viability, T/C (compound 0.1 µM) 43.3% and 42% | viability, T/C (compound 0.316 µM) 34.1% and 33.4% | viability, T/C (compound 1 µM) 37.6% and 40.3%
